Reference: patent US4543408A, “Stable S-adenosylmethionine salts, the process for their preparation, and therapeutic compositions which contain them as active principle” (Bioresearch S.p.A., priority 1981, dated 1985)

Key:
Residual moisture = type: physicochemical
[1] = type: physicochemical; conditions: solid salt storage; for degradation at 45° C. after 60 days: 1440 h; for degradation at 45° C. after 120 days: 2880 h; for degradation at 45° C. after 180 days: 4320 h; for degradation at 45° C. after 240 days: 5760 h; for degradation at 45° C. after 360 days: 8640 h
Description: Stability tests were carried out on the salts prepared in the described manner, by keeping the product in an oven temperature controlled at 45° C. and determining the percentage of residual salt at fixed times. The tests were carried out in comparison with SAM.nHCl salts in which n=1,2 and 3, prepared by the known method (U.S. Pat. No. 2,969,353), and in comparison with SAM.nH2 SO4 salts in which n=0.5,1 and 1.5, also prepared by the known method (West German patent application No. 1,803,978).
The following tables show the percentages of decomposed salt at the times indicated:
Analytical conditions used:
SAM retention time: about 400 seconds.

physchem = conditions: water
[2] = Wide pharmacological screening trial; type: in vivo; conditions: independent of the anion bonded to the SAM
From the text: It was established that the activity of the new salts depends substantially on the capacity of the SAM^+ ion released in the organism to act as a donor of methyl groups, as the natural substrate of a large number of transmethylase enzymes which catalyse fundamental reactions of the lipid, protide and glucide metabolism.

[3] = prior-art salts; cited from earlier work
[4] = Tables 1-4, salts lyophilised without support

Row | SMILES | residual moisture (Residual moisture; [4]) | degradation at 45° C. after 60 days [1] | degradation at 45° C. after 120 days [1] | degradation at 45° C. after 180 days [1] | degradation at 45° C. after 240 days [1] | degradation at 45° C. after 360 days [1] | further results
1 | C[S+](CCC(N)C(=O)[O-])CC1OC(n2cnc3c(N)ncnc32)C(O)C1O (stereo not drawn) [SAM.1.5H2 SO4.nHCl, n=1] | 1% | 5% | 10% | 14% | 17% | 20% | –
2 | C[S+](CCC(N)C(=O)[O-])CC1OC(n2cnc3c(N)ncnc32)C(O)C1O (stereo not drawn) [SAM.1.5H2 SO4.nHCl, n=2] | 1.5% | – | 1.5% | 3% | 4.5% | 5% | residual moisture (Residual moisture; Tables 1-4, salts lyophilised without support, listed as SAM.2HCl.nH2 SO4, n=1.5): 1.5%
3 | C[S+](CCC(N)C(=O)[O-])CC1OC(n2cnc3c(N)ncnc32)C(O)C1O (stereo not drawn) [SAM.1.5H2 SO4.nHCl, n=3] | 2% | 5% | 10% | 14% | 17% | 20% | –
4 | C[S+](CCC(N)C(=O)[O-])CC1OC(n2cnc3c(N)ncnc32)C(O)C1O (stereo not drawn) [SAM.2.5H2 SO4] | – | – | 1.5% | 3% | 4.5% | 5% | residual moisture (Residual moisture; Tables 1-4, salts lyophilised without support, listed as SAM.nH2 SO4, n=3.5): 1.5%; solubility (physchem): > 200 mg/mL
5 | C[S+](CCC(N)C(=O)[O-])CC1OC(n2cnc3c(N)ncnc32)C(O)C1O (stereo not drawn) [SAM.2H2 SO4.0.4H2 O] | – | 5% | 10% | 14% | 17% | 20% | residual moisture (Residual moisture; Tables 1-4, salts lyophilised without support, listed as SAM.nH2 SO4, n=2): 1%
6 | C[S+](CCC(N)C(=O)[O-])CC1OC(n2cnc3c(N)ncnc32)C(O)C1O (stereo not drawn) [SAM.2HCl.nH2 SO4, n=0.5, reference compound] | 0.8% | 30% | 60% | 80% | 100% | 100% | –
7 | C[S+](CCC(N)C(=O)[O-])CC1OC(n2cnc3c(N)ncnc32)C(O)C1O (stereo not drawn) [SAM.2HCl.nH2 SO4, n=1] | 1% | 5% | 10% | 14% | 17% | 20% | –
8 | C[S+](CCC(N)C(=O)[O-])CC1OC(n2cnc3c(N)ncnc32)C(O)C1O (stereo not drawn) [SAM.2HCl.nH2 SO4, n=2] | 2% | 5% | 10% | 14% | 17% | 20% | –
9 | C[S+](CCC(N)C(=O)[O-])CC1OC(n2cnc3c(N)ncnc32)C(O)C1O (stereo not drawn) [SAM.3H2 SO4.0.7H2 O] | – | 5% | 10% | 14% | 17% | 20% | residual moisture (Residual moisture; Tables 1-4, salts lyophilised without support, listed as SAM.nH2 SO4, n=3): 2%
10 | C[S+](CCC(N)C(=O)[O-])CC1OC(n2cnc3c(N)ncnc32)C(O)C1O (stereo not drawn) [SAM.4HCl.0.4H2 O] | – | 5% | 10% | 14% | 17% | 20% | residual moisture (Residual moisture; Tables 1-4, salts lyophilised without support, listed as SAM.nHCl, n=4): 1%
11 | C[S+](CCC(N)C(=O)[O-])CC1OC(n2cnc3c(N)ncnc32)C(O)C1O (stereo not drawn) [SAM.5HCl] | – | – | 1.5% | 3% | 4.5% | 5% | residual moisture (Residual moisture; Tables 1-4, salts lyophilised without support, listed as SAM.nHCl, n=5): 1.5%; residual moisture (Residual moisture; lyophilised without support, with mannitol or with Aerosil): 1.5%; activity and toxicity characteristics [2]: highly interesting activity and toxicity characteristics
12 | C[S+](CCC(N)C(=O)[O-])CC1OC(n2cnc3c(N)ncnc32)C(O)C1O (stereo not drawn) [SAM.6HCl.0.7H2 O] | – | 5% | 10% | 14% | 17% | 20% | residual moisture (Residual moisture; Tables 1-4, salts lyophilised without support, listed as SAM.nHCl, n=6): 2%
13 | C[S+](CCC(N)C(=O)[O-])CC1OC(n2cnc3c(N)ncnc32)C(O)C1O (stereo not drawn) [SAM.nH2 SO4, n=0.5, reference compound] | 0.2% | 100% | 100% | 100% | 100% | 100% | –
14 | C[S+](CCC(N)C(=O)[O-])CC1OC(n2cnc3c(N)ncnc32)C(O)C1O (stereo not drawn) [SAM.nH2 SO4, n=1, reference compound] | 0.5% | 80% | 100% | 100% | 100% | 100% | –
15 | C[S+](CCC(N)C(=O)[O-])CC1OC(n2cnc3c(N)ncnc32)C(O)C1O (stereo not drawn) [SAM.nH2 SO4, n=1.5, reference compound] | 0.8% | 30% | 60% | 80% | 100% | 100% | –
16 | C[S+](CCC(N)C(=O)[O-])CC1OC(n2cnc3c(N)ncnc32)C(O)C1O (stereo not drawn) [SAM.nHCl, n=1, reference compound] | 0.2% | 100% | 100% | 100% | 100% | 100% | –
17 | C[S+](CCC(N)C(=O)[O-])CC1OC(n2cnc3c(N)ncnc32)C(O)C1O (stereo not drawn) [SAM.nHCl, n=2, reference compound] | 0.5% | 80% | 100% | 100% | 100% | 100% | –
18 | C[S+](CCC(N)C(=O)[O-])CC1OC(n2cnc3c(N)ncnc32)C(O)C1O (stereo not drawn) [SAM.nHCl, n=3, reference compound] | 0.8% | 30% | 60% | 80% | 100% | 100% | –
19 | C[S+](CCC(N)C(=O)[O-])CC1OC(n2cnc3c(N)ncnc32)C(O)C1O (stereo not drawn) [disulphatediparatoluene sulphonate, SAM disulphatediparatoluene sulphonate] | – | – | – | – | – | – | temperature up to which the salt is stable [3]: up to 45 °C
20 | C[S+](CCC(N)C(=O)[O-])CC1OC(n2cnc3c(N)ncnc32)C(O)C1O (stereo not drawn) [triparatoluene sulphonate, SAM triparatoluene sulphonate] | – | – | – | – | – | – | temperature up to which the salt is stable [3]: up to 25 °C
